# In US10759783B2, “Biaryl inhibitors of Bruton'S tyrosine kinase” (BIOGEN MA INC., priority 2013, dated 2020):
# Biological target: T1, BTK enzyme (Homo sapiens, UniProt Q06187)
# T1 construct: purchased Upstate 14-552
# Experiment: In vitro BTK kinase assay: BTK-POLYGAT-LS assay
# Assay type: biochemical
# Settings: ATP 10 μM, read-out: IC50 (10uMATP)
# Procedure: The purpose of the BTK in vitro assay is to determine compound potency against BTK through the measurement of IC50. […] For a typical assay, a 24 μL aliquot of a ATP/peptide master mix (final concentration; ATP 10 μM, polyGAT 100 nM) in kinase buffer (10 mM Tris-HCl pH 7.5, 10 mM MgCl2, 200 μM Na3PO4, 5 mM DTT, 0.01% Triton X-100, and 0.2 mg/ml casein) is added to each well. […] The assay is incubated for 30 minutes before being stopped with 28 μL of a 50 mM EDTA solution. […] The plate is covered and incubated for 45 minutes at room temperature.
# T1 sequence (Q06187 whole entry): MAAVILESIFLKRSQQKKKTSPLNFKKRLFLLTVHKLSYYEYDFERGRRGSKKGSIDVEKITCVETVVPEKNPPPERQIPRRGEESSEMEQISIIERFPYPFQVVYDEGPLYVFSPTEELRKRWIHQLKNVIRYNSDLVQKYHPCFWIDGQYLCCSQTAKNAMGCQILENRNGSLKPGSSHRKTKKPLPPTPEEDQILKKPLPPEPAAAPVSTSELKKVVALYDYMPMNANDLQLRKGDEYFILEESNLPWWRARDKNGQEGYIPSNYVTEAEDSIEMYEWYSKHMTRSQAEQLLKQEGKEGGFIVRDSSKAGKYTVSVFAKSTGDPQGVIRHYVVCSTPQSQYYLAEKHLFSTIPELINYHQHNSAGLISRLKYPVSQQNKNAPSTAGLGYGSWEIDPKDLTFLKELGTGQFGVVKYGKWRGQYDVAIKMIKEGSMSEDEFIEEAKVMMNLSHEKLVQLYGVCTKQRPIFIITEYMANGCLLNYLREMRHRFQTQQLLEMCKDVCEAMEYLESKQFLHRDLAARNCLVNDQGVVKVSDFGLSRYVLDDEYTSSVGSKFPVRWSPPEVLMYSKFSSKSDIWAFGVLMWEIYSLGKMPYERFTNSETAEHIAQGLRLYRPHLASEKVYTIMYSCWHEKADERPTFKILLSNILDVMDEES
row,Structure (SMILES),IC50
1,"Cc1cc(-c2ccnc(N)n2)ccc1CNC(=O)[C@@H]1CC[C@@H]2CNCCN2C1 [Example I-79, (7R,9aR)—N-(4-(2-aminopyrimidin-4-yl)-2-methylbenzyl)octahydro-1H-pyrido[1,2-a]pyrazine-7-carboxamide]",1000 to 10000 nM
2,"Cc1cc(-c2ccnc(N)n2)ccc1CNC(=O)c1cnn(C)c1 [Example I-80, N-(4-(2-aminopyrimidin-4-yl)-2-methylbenzyl)-1-methyl-1H-pyrazole-4-carboxamide]",1000 to 10000 nM
3,"Cc1cc(-c2ccnc(N)n2)ccc1CNC(=O)C1CC2CNCC2C1 (centres unmarked) [Example I-81, N-(4-(2-aminopyrimidin-4-yl)-2-methylbenzyl)octahydrocyclopenta[c]pyrrole-5-carboxamide]",1000 to 10000 nM
4,"Cc1cc(-c2ccnc(N)n2)ccc1CNC(=O)c1cc2c(s1)CNCC2 [Example I-82, N-(4-(2-aminopyrimidin-4-yl)-2-methylbenzyl)-4,5,6,7-tetrahydrothieno[2,3-c]pyridine-2-carboxamide]",100 to 999 nM
5,"Cc1cc(-c2ccnc(N)n2)ccc1CNC(=O)c1cnc(C(F)(F)F)s1 [Example I-83, N-(4-(2-aminopyrimidin-4-yl)-2-methylbenzyl)-2-(trifluoromethyl)thiazole-5-carboxamide]",100 to 999 nM
6,"Cc1cc(-c2ccnc(N)n2)ccc1CNC(=O)c1cncs1 [Example I-84, N-(4-(2-aminopyrimidin-4-yl)-2-methylbenzyl)thiazole-5-carboxamide]",1000 to 10000 nM
7,"Cc1cc(-c2ccnc(N)n2)ccc1CNC(=O)c1cnc(C2CC2)s1 [Example I-85, N-(4-(2-aminopyrimidin-4-yl)-2-methylbenzyl)-2-cyclopropylthiazole-5-carboxamide]",10 to 99 nM
8,"Cc1cc(-c2ccnc(N)n2)ccc1CNC(=O)c1cnc(C(C)C)s1 [Example I-86, N-(4-(2-aminopyrimidin-4-yl)-2-methylbenzyl)-2-isopropylthiazole-5-carboxamide]",10 to 99 nM
9,"COC(C)c1ncc(C(=O)NCc2ccc(-c3ccnc(N)n3)cc2C)s1 (centres unmarked) [Example I-87, N-(4-(2-aminopyrimidin-4-yl)-2-methylbenzyl)-2-(1-methoxyethyl)thiazole-5-carboxamide]",100 to 999 nM
10,"Cc1cc(-c2ccnc(N)n2)ccc1CNC(=O)c1cnc(C2CCCO2)s1 (centres unmarked) [Example I-88, N-(4-(2-aminopyrimidin-4-yl)-2-methylbenzyl)-2-(tetrahydrofuran-2-yl)thiazole-5-carboxamide]",100 to 999 nM
11,"Cn1cc(Nc2nccc(-c3ccc4c(c3)CCC4NC(=O)c3cnc(C(C)(C)C)s3)n2)cn1 (centres unmarked) [Example I-90, 2-(tert-butyl)-N-(5-(2-((1-methyl-1H-pyrazol-4-yl)amino)pyrimidin-4-yl)-2,3-dihydro-1H-inden-1-yl)thiazole-5-carboxamide]",10 to 99 nM
12,"Cn1cc(Nc2cc(-c3ccc4c(c3)CCCC4NC(=O)c3cnc(C(C)(C)C)s3)ncn2)cn1 (centres unmarked) [Example I-92, 2-(tert-butyl)-N-(6-(6-((1-methyl-1H-pyrazol-4-yl)amino)pyrimidin-4-yl)-1,2,3,4-tetrahydronaphthalen-1-yl)thiazole-5-carboxamide]",10 to 99 nM
13,"CC(C)(C)c1ncc(C(=O)NC2CCCc3cc(-c4cc(Nc5cn[nH]c5)ncn4)ccc32)s1 (centres unmarked) [Example I-93, N-(6-(6-((1H-pyrazol-4-yl)amino)pyrimidin-4-yl)-1,2,3,4-tetrahydronaphthalen-1-yl)-2-(tert-butyl)thiazole-5-carboxamide]",10 to 99 nM
14,"Cn1cc(Nc2cc(-c3ccc4c(c3)CCCC4NC(=O)c3cc4c(s3)CCOC4)ncn2)cn1 (centres unmarked) [Example I-94, N-(6-(6-((1-methyl-1H-pyrazol-4-yl)amino)pyrimidin-4-yl)-1,2,3,4-tetrahydronaphthalen-1-yl)-6,7-dihydro-4H-thieno[3,2-c]pyran-2-carboxamide]",100 to 999 nM
